Experimental findings from patent US20140296212A1, “SUBSTITUTED PHENOXYPROPYLCYCLOAMINE DERIVATIVES AS HISTAMINE-3 (H3) RECEPTOR LIGANDS” (CEPHALON, INC., priority 2009, published 2014) are described below.

Broadly, the melting point is the temperature, or range, at which the solid turns liquid. By Ki is commonly meant a dissociation constant, usually derived from enzyme kinetics or from competition with a known ligand.

The target in one data set is T1, human H3 receptor (Homo sapiens, UniProt Q9Y5N1).
T1 construct: expressed in transfected cells
T1 sequence (Q9Y5N1 whole entry): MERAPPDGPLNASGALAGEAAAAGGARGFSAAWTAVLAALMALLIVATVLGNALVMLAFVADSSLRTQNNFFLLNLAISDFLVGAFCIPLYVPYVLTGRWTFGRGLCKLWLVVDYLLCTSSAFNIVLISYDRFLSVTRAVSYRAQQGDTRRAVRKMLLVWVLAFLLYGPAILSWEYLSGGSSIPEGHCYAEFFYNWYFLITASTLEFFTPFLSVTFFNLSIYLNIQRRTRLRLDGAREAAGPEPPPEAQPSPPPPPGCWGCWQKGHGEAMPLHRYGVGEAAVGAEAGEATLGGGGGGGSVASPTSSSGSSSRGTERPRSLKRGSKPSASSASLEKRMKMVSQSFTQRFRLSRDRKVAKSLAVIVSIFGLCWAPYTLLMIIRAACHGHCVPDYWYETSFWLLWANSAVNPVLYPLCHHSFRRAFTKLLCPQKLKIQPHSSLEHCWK
Nature of the data set: Human H3 radioligand binding ([3H]-N-alpha-methylhistamine, SPA). The note with it: membranes of CHO cells expressing human H3. On the procedure: Cell pellets were resuspended in 5 mM Tris-HCl, pH 7.5 with 5 nM EDTA and a cocktail of protease inhibitors (Complete Protease Inhibitor Tablets, Roche Diagnostics). Cells were disrupted using a polytron cell homogenizer and the suspension was centrifuged at 1000×g for 10 minutes at 4° C. The pellet was discarded and the supernatant centrifuged at 40,000×g for 30 min at 4° C. This membrane pellet was washed in membrane buffer containing 50 mM Tris-HCl, pH 7.5 with 0.6 mM EDTA, 5 mM MgCl2 and protease inhibitors, recentrifuged as above and the final pellet resuspended in membrane buffer plus 250 mM sucrose and frozen at −80° C.
(§1) Membranes were resuspended in 50 mM Tris HCl (pH 7.4), 5 mM MgCl2, 0.1% BSA. The membrane suspensions (10 μg protein per well) were incubated in a 96 well microtiter plate with [^3H]-N-alpha-methylhistamine (approximately 1 nM final concentration), test compounds at various concentrations (0.01 nM-30 μM) and scintillation proximity beads (Perkin Elmer, FlashBlueGPCR Scintillating Beads) in a final volume of 80 μl for 4 hours at room temperature, protected from light. Non-specific binding was determined in the presence of 10 μM clobenpropit. Radioligand bound to receptor, and therefore in proximity to the scintillation beads, was measured using a MicroBeta scintillation counter.

The target of data set [1] is T2, rat histamine H3 receptor (Rattus norvegicus, UniProt Q9QYN8).
T2 construct: encoding the entire 445-amino-acid rat histamine H3 receptor; expressed in transfected cells
T2 sequence (Q9QYN8 whole entry): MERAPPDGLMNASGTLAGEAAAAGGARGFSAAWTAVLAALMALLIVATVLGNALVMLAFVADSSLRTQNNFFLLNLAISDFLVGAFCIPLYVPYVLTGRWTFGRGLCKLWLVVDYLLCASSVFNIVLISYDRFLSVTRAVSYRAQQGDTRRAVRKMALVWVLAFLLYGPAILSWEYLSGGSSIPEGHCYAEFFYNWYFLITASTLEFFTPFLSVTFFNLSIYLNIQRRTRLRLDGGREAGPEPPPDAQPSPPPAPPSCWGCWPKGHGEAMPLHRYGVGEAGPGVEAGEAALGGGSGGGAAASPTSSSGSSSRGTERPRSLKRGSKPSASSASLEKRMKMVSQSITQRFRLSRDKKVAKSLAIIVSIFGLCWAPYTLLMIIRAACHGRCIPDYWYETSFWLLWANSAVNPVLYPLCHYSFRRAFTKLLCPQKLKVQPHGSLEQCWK
Kind of data set: Rat H3 radioligand binding ([3H]-N-alpha-methylhistamine, SPA).
From the text: The rat H3 receptor cDNA was PCR amplified from reverse-transcribed RNA pooled from rat thalamus, hypothalamus, striatum and prefrontal cortex with a sequence corresponding to by #338-1672 of Genbank file #NM_053506, encoding the entire 445-amino-acid rat histamine H3 receptor. This was engineered into the pIRES-neo3 mammalian expression vector, which was stably transfected into the CHO-A3 cell line (Euroscreen, Belgium), followed by clonal selection by limiting dilution. Cells were harvested and cell pellets were frozen (−80° C.). Cell pellets were resuspended in 5 mM Tris-HCl, pH 7.5 with 5 nM EDTA and a cocktail of protease inhibitors (Complete Protease Inhibitor Tablets, Roche Diagnostics). Cells were disrupted using a polytron cell homogenizer and the suspension was centrifuged at 1000×g for 10 minutes at 4° C. The pellet was discarded and the supernatant centrifuged at 40,000×g for 30 min at 4° C. This membrane pellet was washed in membrane buffer containing 50 mM Tris-HCl, pH 7.5 with 0.6 mM EDTA, 5 mM MgCl2 and protease inhibitors, recentrifuged as above and the final pellet resuspended in membrane buffer plus 250 mM sucrose and frozen at −80° C.
as §1

Setting [2] is: membranes of CHO-A3 cells expressing rat H3, [3H]-N-alpha-methylhistamine, read-out: Rat H3 Ki.

Structures can show the parent of a compound that is named as a salt. Where two headings read alike, the source gives them in different places. Where only a bound is given, the exact number is not on record here.

`C[C@@H]1CCCN1CCCOc1ccc(C(=O)C(C)(C)N2CCOCC2)cc1` (as salt: fumaric acid salt) [Example 54] returned a melting point of 45 to 50 °C.

`C[C@@H]1CCCN1CCCOc1ccc(C(=O)CN2CCN(C(=O)c3ccccc3)CC2)c(F)c1` (as salt: fumaric acid salt) [Example 103, 2-(4-Benzoyl-piperazin-1-yl)-1-{2-fluoro-4-[3-((R)-2-methyl-pyrrolidin-1-yl)-propoxy]-phenyl}-ethanone]: the melting point is 98 to 101 °C.

On to `CC(C)N1CCC(Oc2ccc(C(=O)CN3CCOCC3)cc2)CC1` (as salt: hydrochloride) [Example 45, 1-[4-(1-Isopropyl-piperidin-4-yloxy)-phenyl]-2-morpholin-4-yl-ethanone], for which the melting point is 296 to 298 °C.

With `CC(C(=O)c1ccc(OCCCN2CCCCC2)cc1)N1CCCCC1` (centres unmarked) [Example 19, 2-Piperidin-1-yl-1-[4-(3-piperidin-1-yl-propoxy)-phenyl]-propan-1-one], the melting point is above 240 °C. The same molecule yielded a Ki on human H3 receptor of 0.1 to 100 nM.

The molecule `CC(C(=O)c1ccc(OCCCN2CCC[C@@H]2C)cc1)N1CCCCC1` (stereo partly drawn) [Example 20, 1-{4-[3-((S)-2-Methyl-pyrrolidin-1-yl)-propoxy]-phenyl}-2-piperidin-1-yl-propan-1-one] gave a melting point above 230 °C. The molecule also gave a Ki on human H3 receptor of 0.1 to 100 nM.

With `CC(C(=O)c1ccc(OCCCN2CCC[C@H]2C)cc1)N1CCOCC1` (stereo partly drawn) [Example 37, 1-{4-[3-((R)-2-Methyl-pyrrolidin-1-yl)-propoxy]-phenyl}-2-morpholin-4-yl-propan-1-one], the melting point came to 231 °C. Further, the Ki at human H3 receptor fell in the range of 0.1 to 100 nM. In data set [1], this molecule yielded a Ki of 101 to 500 nM.

In turn, `C[C@@H]1CCCN1CCCOc1ccc(C(=O)CN2CCC(F)(F)CC2)cc1` [Example 44, 2-(4,4-Difluoro-piperidin-1-yl)-1-{4-[3-((R)-2-methyl-pyrrolidin-1-yl)-propoxy]-phenyl}-ethanone] returned a melting point of 127 to 140 °C. Also, the Ki on human H3 receptor is 0.1 to 100 nM. Further, in data set [1] (setting [2]), the Ki was in the range of 0.1 to 100 nM.

The molecule `O=C(CN1CCOCC1)c1ccc(OCCCN2Cc3ccccc3C2)cc1` [Example 46, 1-{4-[3-(1,3-Dihydro-isoindol-2-yl)-propoxy)-phenyl}-2-morpholin-4-yl-ethanone] registered a melting point of 139 to 139.5 °C. At human H3 receptor, this molecule had a Ki above 1000 nM.

With `CC(C(=O)c1ccc(OCCCN2CCOCC2)cc1)N1CCOCC1` (centres unmarked) [Example 48, 2-Morpholin-4-yl-1-[4-(3-morpholin-4-yl-propoxy)-phenyl]-propan-1-one], the melting point stood at 258 °C. This molecule also yielded a Ki on human H3 receptor above 1000 nM.

Turning to `CC(=O)N1CCN(CCCOc2ccc(C(=O)CN3CCOCC3)cc2)CC1` [Example 49, 1-{4-[3-(4-Acetyl-piperazin-1-yl)-propoxy]-phenyl}-2-morpholin-4-yl-ethanone], the melting point amounted to 247 °C. On human H3 receptor, the Ki is above 1000 nM.

In turn, `CC(=O)N1CCN(CCCOc2ccc(C(=O)C(C)N3CCOCC3)cc2)CC1` (centres unmarked) [Example 50, 1-{4-[3-(4-Acetyl-piperazin-1-yl)-propoxy]-phenyl}-2-morpholin-4-yl-propan-1-one] displayed a melting point of 240 °C. For the same molecule, on human H3 receptor, the Ki was above 1000 nM.

Consider `O=C(CN1CCOCC1)c1ccc(OCCCN2CCN3CCC[C@H]3C2)cc1` [Example 51, 1-{4-[(S)-3-(Hexahydro-pyrrolo[1,2-a]pyrazin-2-yl)-propoxy)-phenyl}-2-morpholin-4-yl-ethanone], for which the melting point was determined as 238 °C. On human H3 receptor, this molecule came in with a Ki above 1000 nM.

Take `CC(C)N1CCC(Oc2ccc(C(=O)CN3CCCC(F)(F)C3)cc2)CC1` [Example 53, 2-(3,3-Difluoro-piperidin-1-yl)-1-[4-(1-isopropyl-piperidin-4-yloxy)-phenyl]-ethanone]: the melting point was 160 to 165 °C (dec.). The Ki on human H3 receptor lay within 0.1 to 100 nM. For the same molecule, the Ki in data set [1] (setting [2]) fell in the range of 101 to 500 nM.

Molecule `CC(C(=O)c1ccc(OCCCN2CCC(F)(F)C2)cc1)N1CCOCC1` (centres unmarked) [Example 56, 1-{4-[3-(3,3-Difluoro-pyrrolidin-1-yl)-propoxy]-phenyl}-2-morpholin-4-yl-propan-1-one] came in with a melting point of 254 °C. On human H3 receptor, this molecule gave a Ki above 1000 nM.

With `CC(C)COC(=O)N1CCN(CC(=O)c2ccc(OCCCN3CCC[C@H]3C)cc2)CC1` [Example 131, 4-(2-{4-[3-((R)-2-Methyl-pyrrolidin-1-yl)-propoxy]-phenyl}-2-oxo-ethyl)-piperazine-1-carboxylic acid isobutyl ester], the inhibition constant (Ki) (on human H3 receptor; in data set [1] (setting [2])) was 0.1 to 100 nM throughout.

On to `C[C@@H]1CCCN1CCCOc1ccc(C(=O)CN2CCN(C(=O)c3cccc4ccccc34)CC2)cc1` [Example 133, 1-{4-[3-((R)-2-Methyl-pyrrolidin-1-yl)-propoxy]-phenyl}-2-[4-(naphthalene-1-carbonyl)-piperazin-1-yl]-ethanone], for which the Ki (at human H3 receptor; in data set [1] (setting [2])) was 0.1 to 100 nM each time.

In the case of `Cc1cc(C(=O)CN2CCC(F)(F)CC2)ccc1OCCCN1CCC[C@H]1C` [Example 136, 2-(4,4-Difluoro-piperidin-1-yl)-1-{3-methyl-4-[3-((R)-2-methyl-pyrrolidin-1-yl)-propoxy]-phenyl}-ethanone], the Ki lay within 0.1 to 100 nM at human H3 receptor and 101 to 500 nM in data set [1] (setting [2]).

As for `COC(=O)N1CCN(CC(=O)c2ccc(OCCCN3CCC[C@H]3C)c(C)c2)CC1` [Example 137, 4-(2-{3-Methyl-4-[3-((R)-2-methyl-pyrrolidin-1-yl)-propoxy]-phenyl}-2-oxo-ethyl)-piperazine-1-carboxylic acid methyl ester], the inhibitory constant (Ki) (at human H3 receptor; in data set [1] (setting [2])) was 0.1 to 100 nM each time.

On to `Cc1cc(C)cc(C(=O)N2CCN(CC(=O)c3ccc(OCCCN4CCC[C@H]4C)cc3)CC2)c1` [Example 140, 2-[4-(3,5-Dimethyl-benzoyl)-piperazin-1-yl]-1-{4-[3-((R)-2-methyl-pyrrolidin-1-yl)-propoxy]-phenyl}-ethanone], for which the Ki (on human H3 receptor; in data set [1] (setting [2])) was 0.1 to 100 nM each time.

As to `Cc1nc2ccccc2n1CC(=O)c1ccc(OCCCN2CCC[C@H]2C)cc1` [Example 142, 2-(2-Methyl-benzoimidazol-1-yl)-1-{4-[3-((R)-2-methyl-pyrrolidin-1-yl)-propoxy]-phenyl}-ethanone], the Ki (on human H3 receptor; in data set [1] (setting [2])) was 0.1 to 100 nM throughout.

Molecule `CC(C)OC(=O)N1CCN(CC(=O)c2ccc(OCCCN3CCC[C@H]3C)cc2)CC1` [Example 158, 4-(2-{4-[3-((R)-2-Methyl-pyrrolidin-1-yl)-propoxy]-phenyl}-2-oxo-ethyl)-piperazine-1-carboxylic acid isopropyl ester] displayed a melting point of 222 to 224 °C.

In the case of `C[C@@H]1CCCN1CCCOc1ccc(/C(CN2CCCCC2)=N/OC(C)(C)C)cc1` [Example 160], the Ki (at human H3 receptor; in data set [1] (setting [2])) was 0.1 to 100 nM each time.

`C[C@@H]1CCCN1CCCOc1ccc(/C(CN2CCCCC2=O)=N/OC(C)(C)C)cc1` [Example 167]: the Ki (on human H3 receptor; in data set [1] (setting [2])) was 0.1 to 100 nM throughout.

Take `C[C@@H]1CCCN1CCCOc1ccc(/C(CN2CCOC(c3ccccc3)C2)=N/OC(C)(C)C)cc1` (some centres unmarked) [Example 168]: the Ki was 0.1 to 100 nM at human H3 receptor and 101 to 500 nM in data set [1] (setting [2]).
